The values that follow come from patent publication US8940771B2, “Organic compounds” (Novartis AG, priority 2007, dated 2015).

Assay type in all cases: biochemical
Assay [1] has as its target PI3Kγ (p110γ(Δ143-[Met144-1102])-His, BV950) (Homo sapiens (Human), UniProt P48736). The assay can be described thus: PI3K KinaseGlo assay, PI3Kgamma. Particulars: 1 μM ATP, four-isoform table. On the technique in general: Kinase-Glo measures the ATP left after a reaction by luminescence.
In assay [2] the target is PI3Kδ (p85iSH2(461-568)-p110δ(2-1044)-His, BV1060) (Homo sapiens (Human), UniProt O00329). The assay can be described thus: PI3K KinaseGlo assay, PI3Kdelta. Particulars: 1 μM ATP, alpha vs. delta selectivity table.
PI3Kδ (p85iSH2(461-568)-p110δ(2-1044)-His, BV1060), sequence (O00329 other isoform, or with tags, fused parts or gaps): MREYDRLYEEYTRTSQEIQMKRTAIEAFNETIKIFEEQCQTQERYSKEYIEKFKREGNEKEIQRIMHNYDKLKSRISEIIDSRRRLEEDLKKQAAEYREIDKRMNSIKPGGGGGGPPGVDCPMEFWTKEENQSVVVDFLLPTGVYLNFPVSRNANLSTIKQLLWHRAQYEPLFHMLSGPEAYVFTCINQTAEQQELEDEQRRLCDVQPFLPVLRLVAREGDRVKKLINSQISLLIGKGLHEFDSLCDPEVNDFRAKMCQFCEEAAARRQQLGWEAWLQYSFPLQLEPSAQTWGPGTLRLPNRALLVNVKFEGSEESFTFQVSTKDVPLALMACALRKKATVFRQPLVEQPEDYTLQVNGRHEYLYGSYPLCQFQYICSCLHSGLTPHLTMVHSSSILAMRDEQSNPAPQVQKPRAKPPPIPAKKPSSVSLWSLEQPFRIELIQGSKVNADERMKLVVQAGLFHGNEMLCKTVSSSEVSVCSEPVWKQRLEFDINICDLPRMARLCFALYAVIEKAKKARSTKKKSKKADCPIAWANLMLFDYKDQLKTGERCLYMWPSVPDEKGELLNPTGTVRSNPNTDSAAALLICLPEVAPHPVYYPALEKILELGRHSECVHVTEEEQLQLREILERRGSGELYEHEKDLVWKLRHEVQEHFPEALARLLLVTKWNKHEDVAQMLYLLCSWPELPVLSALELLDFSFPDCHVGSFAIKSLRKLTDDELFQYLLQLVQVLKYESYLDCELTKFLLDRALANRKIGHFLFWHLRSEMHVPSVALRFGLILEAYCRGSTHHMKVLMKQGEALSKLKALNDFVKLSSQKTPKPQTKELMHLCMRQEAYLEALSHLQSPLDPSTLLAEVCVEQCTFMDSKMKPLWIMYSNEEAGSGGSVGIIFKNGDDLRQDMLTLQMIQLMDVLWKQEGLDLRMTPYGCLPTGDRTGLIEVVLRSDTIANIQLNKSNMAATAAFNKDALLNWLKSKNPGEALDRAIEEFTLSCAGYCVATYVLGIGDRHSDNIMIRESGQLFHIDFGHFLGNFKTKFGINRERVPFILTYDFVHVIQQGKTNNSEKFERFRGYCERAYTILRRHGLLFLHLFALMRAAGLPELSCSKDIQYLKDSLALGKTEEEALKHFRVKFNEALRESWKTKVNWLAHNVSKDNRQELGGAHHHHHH
Assay [3] deals with PI3Kα (p85iSH2(461-568)-p110α(21-1068)-His, BV1075) (Homo sapiens (Human), UniProt P42336). The assay can be described thus: PI3K KinaseGlo assay, PI3Kalpha. Particulars: for IC50: KinaseGlo, 1 μM ATP; for Selectivity PI3Kalpha vs. PI3Kdelta: ratio of PI3Kdelta IC50 to PI3Kalpha IC50.
PI3Kα (p85iSH2(461-568)-p110α(21-1068)-His, BV1075), sequence (P42336 other isoform, or with tags, fused parts or gaps): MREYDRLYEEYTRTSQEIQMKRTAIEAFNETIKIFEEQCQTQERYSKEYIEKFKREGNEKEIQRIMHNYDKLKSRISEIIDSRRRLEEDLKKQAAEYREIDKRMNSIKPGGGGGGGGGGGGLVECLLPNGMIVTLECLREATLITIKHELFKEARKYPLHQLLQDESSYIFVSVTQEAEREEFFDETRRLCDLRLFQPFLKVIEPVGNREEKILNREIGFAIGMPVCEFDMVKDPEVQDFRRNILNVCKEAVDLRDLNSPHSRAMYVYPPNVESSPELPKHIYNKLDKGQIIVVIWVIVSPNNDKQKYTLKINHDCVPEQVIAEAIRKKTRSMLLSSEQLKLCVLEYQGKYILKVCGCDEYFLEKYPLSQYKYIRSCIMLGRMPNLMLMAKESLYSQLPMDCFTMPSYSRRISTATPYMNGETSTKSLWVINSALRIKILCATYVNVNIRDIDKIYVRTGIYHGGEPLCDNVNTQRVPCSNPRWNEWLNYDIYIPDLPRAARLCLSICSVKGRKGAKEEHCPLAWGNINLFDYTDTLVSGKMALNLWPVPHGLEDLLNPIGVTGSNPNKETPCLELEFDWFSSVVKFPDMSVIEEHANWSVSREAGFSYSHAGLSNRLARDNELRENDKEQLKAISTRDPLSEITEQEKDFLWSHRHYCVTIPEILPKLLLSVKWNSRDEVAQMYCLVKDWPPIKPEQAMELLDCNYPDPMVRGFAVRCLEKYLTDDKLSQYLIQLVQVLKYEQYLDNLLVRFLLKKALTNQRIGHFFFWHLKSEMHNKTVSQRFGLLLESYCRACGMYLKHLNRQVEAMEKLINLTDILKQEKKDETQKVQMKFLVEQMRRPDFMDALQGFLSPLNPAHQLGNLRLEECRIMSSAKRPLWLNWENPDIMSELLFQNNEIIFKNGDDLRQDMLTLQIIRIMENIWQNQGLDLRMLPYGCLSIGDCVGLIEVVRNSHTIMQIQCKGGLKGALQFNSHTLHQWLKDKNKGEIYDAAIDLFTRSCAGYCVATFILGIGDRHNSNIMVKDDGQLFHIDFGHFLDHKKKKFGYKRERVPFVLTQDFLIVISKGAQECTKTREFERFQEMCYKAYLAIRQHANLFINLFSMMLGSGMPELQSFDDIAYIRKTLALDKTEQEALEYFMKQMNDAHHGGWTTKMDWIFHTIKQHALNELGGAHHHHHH
The mark [4] stands for this setting: alpha vs. delta selectivity table.

PI3Kγ (p110γ(Δ143-[Met144-1102])-His, BV950), sequence (P48736 other isoform, or with tags, fused parts or gaps): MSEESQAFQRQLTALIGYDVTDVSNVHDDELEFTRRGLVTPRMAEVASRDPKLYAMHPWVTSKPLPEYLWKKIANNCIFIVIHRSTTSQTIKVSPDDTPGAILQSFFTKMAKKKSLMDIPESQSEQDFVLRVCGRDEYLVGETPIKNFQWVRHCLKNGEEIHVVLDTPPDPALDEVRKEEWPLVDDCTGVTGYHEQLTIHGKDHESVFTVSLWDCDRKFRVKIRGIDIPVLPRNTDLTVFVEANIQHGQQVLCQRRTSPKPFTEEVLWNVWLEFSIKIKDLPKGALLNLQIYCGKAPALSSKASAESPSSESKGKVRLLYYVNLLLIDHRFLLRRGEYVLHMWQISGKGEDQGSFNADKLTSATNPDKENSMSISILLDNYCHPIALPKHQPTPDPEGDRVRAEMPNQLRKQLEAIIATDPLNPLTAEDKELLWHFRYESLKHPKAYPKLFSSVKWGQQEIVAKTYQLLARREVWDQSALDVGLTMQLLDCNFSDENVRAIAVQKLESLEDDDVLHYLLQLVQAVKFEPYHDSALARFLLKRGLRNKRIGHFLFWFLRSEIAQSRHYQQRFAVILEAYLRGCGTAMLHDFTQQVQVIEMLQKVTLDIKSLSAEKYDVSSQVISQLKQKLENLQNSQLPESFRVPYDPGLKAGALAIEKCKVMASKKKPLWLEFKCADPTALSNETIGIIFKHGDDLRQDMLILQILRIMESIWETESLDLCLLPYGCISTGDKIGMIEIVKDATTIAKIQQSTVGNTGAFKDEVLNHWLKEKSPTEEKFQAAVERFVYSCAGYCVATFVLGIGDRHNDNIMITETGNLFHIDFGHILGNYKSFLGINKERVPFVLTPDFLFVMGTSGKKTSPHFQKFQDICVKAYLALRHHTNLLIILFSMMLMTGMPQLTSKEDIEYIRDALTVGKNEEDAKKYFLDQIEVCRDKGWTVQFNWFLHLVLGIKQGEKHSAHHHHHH

What is called IC50 is the concentration that inhibits the measured activity by half. A high value points to weaker potency. `Cc1nc(NC(=O)N2CCC[C@@]2(C)C(N)=O)sc1-c1csc(CC2CC2)n1` [Example 151, (S)-2-Methyl-pyrrolidine-1,2-dicarboxylic acid 2-amide 1-[(2-cyclopropylmethyl-4′-methyl-[4,5′]bithiazolyl-2′-yl)-amide]] yielded an IC50 in assay [1] of 928 nM.
Turning to `Cc1nc(NC(=O)N2C[C@@H](F)C[C@H]2C(N)=O)sc1-c1ccnc(C(C)(C)C)n1` [Example 66], the IC50 in assay [2] turned out to be 1270 nM; in assay [3] (10 nM enzyme, 30 mins), 40 nM; in assay [3] (setting [4]), 40 nM. In addition, in assay [3], the “Selectivity PI3Kalpha vs. PI3Kdelta” value is recorded as 32-fold.
In the case of `Cc1nc(NC(=O)N2CCC[C@@]2(C)C(N)=O)sc1-c1ccnc(C(C)(C)C)n1` [Example 12, (S)-2-methyl-pyrrolidine-1,2-dicarboxylic acid 2-amide 1-{[5-(2-tert-butyl-pyrimidin-4-yl)-4-methyl-thiazol-2-yl]-amide}], the IC50 was determined as 974 nM in assay [2] and 15 nM in assay [3] (setting [4]). In addition, the “Selectivity PI3Kalpha vs. PI3Kdelta” value in assay [3] is 65-fold.
The like results for `Cc1nc(NC(=O)N2C[C@H](N(C)C)C[C@H]2C(N)=O)sc1-c1ccnc(C(C)(C)C)n1` [Example 70, (2S,4R)-4-Dimethylamino-pyrrolidine-1,2-dicarboxylic acid 2-amide 1-{[5-(2-tert-butyl-pyrimidin-4-yl)-4-methyl-thiazol-2-yl]-amide}] were, in that order, 3450 nM, 14 nM and 246-fold.
